{"source": "patent US8952024B2", "about": "“Herbicidal pyrimidone derivatives” (E I du Pont de Nemours and Company, priority 2009, dated 2015)", "test_in_all_cases": "Test B pre-/postemergence plant response", "format_in_all_cases": "in vivo", "key": {"[1]": {"test_system": "Italian ryegrass (Lolium multiflorum)", "method_in_brief": "(§1)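 Seeds sown in loam–sand blend were treated preemergence, and plants at 2–18 cm (1- to 4-leaf stage) in peat-based medium were treated postemergence; compounds were formulated in non-phytotoxic solvent with surfactant. After 13–15 days in greenhouse, response was visually rated against controls, 0 (no effect) to 100 (complete control).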"}, "[2]": {"test_system": "morningglory (Ipomoea coccinea)", "method_in_brief": "as §1"}, "[3]": {"test_system": "ragweed (common ragweed, Ambrosia elatior)", "method_in_brief": "as §1"}, "[4]": {"test_system": "bermudagrass (Cynodon dactylon)", "method_in_brief": "as §1"}, "[5]": {"test_system": "Surinam grass (Brachiaria decumbens)", "method_in_brief": "as §1"}, "wild oat (Avena fatua)": {"test_system": "wild oat (Avena fatua)", "method_in_brief": "as §1"}, "[6]": {"test_system": "wheat (Triticum aestivum)", "method_in_brief": "as §1"}, "[7]": {"test_system": "large crabgrass (Digitaria sanguinalis)", "method_in_brief": "as §1"}, "kochia (Kochia scoparia)": {"test_system": "kochia (Kochia scoparia)", "details": "Postemergence; for Plant response rating, Kochia: scale 0 (no effect) to 100 (complete control)", "method_in_brief": "as §1"}, "[8]": {"test_system": "woolly cupgrass (Eriochloa villosa)", "method_in_brief": "as §1"}, "[9]": {"test_system": "blackgrass (Alopecurus myosuroides)", "method_in_brief": "as §1"}, "[10]": {"test_system": "cocklebur (Xanthium strumarium)", "method_in_brief": "as §1"}, "[11]": {"test_system": "downy bromegrass (Bromus tectorum)", "method_in_brief": "as §1"}, "[12]": {"details": "250 g ai/ha, Preemergence, 0 to 100 scale"}, "[13]": {"details": "Postemergence, 62 g ai/ha, scale 0 (no effect) to 100 (complete control), 13 to 15 days"}, "[14]": {"details": "Postemergence, 125 g ai/ha, visual rating after 13 to 15 days, scale 0 (no effect) to 100 (complete control)"}, "[15]": {"details": "Preemergence, 31 g ai/ha, scale 0 to 100 (0 no effect, 100 complete control)"}, "[16]": {"details": "Preemergence, 62 g ai/ha, scale 0 to 100 (0 no effect, 100 complete control)"}, "[17]": {"details": "Preemergence, 125 g ai/ha, 0 to 100 scale"}, "[18]": {"details": "Postemergence, 31 g ai/ha, scale 0 to 100 (0 no effect, 100 complete control)"}, "[19]": {"details": "Postemergence, 250 g ai/ha, scale 0 to 100"}}, "data": [{"smiles": "Cc1cc(C)cc(-n2c(-c3ccccc3)ncc(C(=O)C3=C(O)CCCC3=O)c2=O)c1", "note": "[Compound 33]", "values": [{"measurement": "Plant response rating, Ryegrass, Italian", "setting": "[1]; [12]", "result": 5}, {"measurement": "Plant response rating, Ryegrass, Italian", "setting": "[1]; [13]", "result": 10}, {"measurement": "Plant response rating, Ryegrass, Italian", "setting": "[1]; [14]", "result": 40}, {"measurement": "Plant response rating, Ryegrass, Italian", "setting": "[1]; [15]", "result": 0}, {"measurement": "Plant response rating, Ryegrass, Italian", "setting": "[1]; [16]", "result": 0}, {"measurement": "Ryegrass, Italian plant response rating", "setting": "[1]; [17]", "result": 5}, {"measurement": "Plant response rating, Morningglory", "setting": "[2]; [12]", "result": 90}, {"measurement": "Plant response rating, Morningglory", "setting": "[2]; [13]", "result": 60}, {"measurement": "Plant response rating, Morningglory", "setting": "[2]; [14]", "result": 80}, {"measurement": "Plant response rating, Morningglory", "setting": "[2]; [15]", "result": 0}, {"measurement": "Plant response rating, Morningglory", "setting": "[2]; [16]", "result": 15}, {"measurement": "Morningglory plant response rating", "setting": "[2]; [17]", "result": 70}, {"measurement": "Plant response rating, Ragweed", "setting": "[3]; [12]", "result": 100}, {"measurement": "Plant response rating, Ragweed", "setting": "[3]; [13]", "result": 95}, {"measurement": "Plant response rating, Ragweed", "setting": "[3]; [14]", "result": 98}, {"measurement": "Plant response rating, Ragweed", "setting": "[3]; [15]", "result": 80}, {"measurement": "Plant response rating, Ragweed", "setting": "[3]; [16]", "result": 85}, {"measurement": "Ragweed plant response rating", "setting": "[3]; [17]", "result": 100}, {"measurement": "Plant response rating, Bermudagrass", "setting": "[4]; [12]", "result": 100}, {"measurement": "Plant response rating, Bermudagrass", "setting": "[4]; [18]", "result": 75}, {"measurement": "Plant response rating, Bermudagrass", "setting": "[4]; [13]", "result": 95}, {"measurement": "Plant response rating, Bermudagrass", "setting": "[4]; [14]", "result": 98}, {"measurement": "Bermudagrass plant response rating", "setting": "[4]; [19]", "result": 98}, {"measurement": "Plant response rating, Bermudagrass", "setting": "[4]; [15]", "result": 98}, {"measurement": "Plant response rating, Bermudagrass", "setting": "[4]; [16]", "result": 100}, {"measurement": "Bermudagrass plant response rating", "setting": "[4]; [17]", "result": 100}, {"measurement": "Plant response rating, Surinam Grass", "setting": "[5]; [12]", "result": 100}, {"measurement": "Plant response rating, Surinam Grass", "setting": "[5]; [13]", "result": 65}, {"measurement": "Plant response rating, Surinam Grass", "setting": "[5]; [14]", "result": 75}, {"measurement": "Plant response rating, Surinam Grass", "setting": "[5]; [15]", "result": 0}, {"measurement": "Plant response rating, Surinam Grass", "setting": "[5]; [16]", "result": 65}, {"measurement": "Surinam Grass plant response rating", "setting": "[5]; [17]", "result": 95}, {"measurement": "Plant response rating, Oat, Wild", "setting": "wild oat (Avena fatua); [12]", "result": 50}, {"measurement": "Plant response rating, Oat, Wild", "setting": "wild oat (Avena fatua); [13]", "result": 15}, {"measurement": "Plant response rating, Oat, Wild", "setting": "wild oat (Avena fatua); [14]", "result": 40}, {"measurement": "Plant response rating, Oat, Wild", "setting": "wild oat (Avena fatua); [15]", "result": 0}, {"measurement": "Plant response rating, Oat, Wild", "setting": "wild oat (Avena fatua); [16]", "result": 0}, {"measurement": "Oat, Wild plant response rating", "setting": "wild oat (Avena fatua); [17]", "result": 30}, {"measurement": "Plant response rating, Wheat", "setting": "[6]; [12]", "result": 5}, {"measurement": "Plant response rating, Wheat", "setting": "[6]; [13]", "result": 0}, {"measurement": "Plant response rating, Wheat", "setting": "[6]; [14]", "result": 5}, {"measurement": "Plant response rating, Wheat", "setting": "[6]; [15]", "result": 0}, {"measurement": "Plant response rating, Wheat", "setting": "[6]; [16]", "result": 0}, {"measurement": "Wheat plant response rating", "setting": "[6]; [17]", "result": 0}, {"measurement": "Plant response rating, Crabgrass, Large", "setting": "[7]; [12]", "result": 100}, {"measurement": "Plant response rating, Crabgrass, Large", "setting": "[7]; [18]", "result": 75}, {"measurement": "Plant response rating, Crabgrass, Large", "setting": "[7]; [13]", "result": 85}, {"measurement": "Plant response rating, Crabgrass, Large", "setting": "[7]; [14]", "result": 90}, {"measurement": "Crabgrass, Large plant response rating", "setting": "[7]; [19]", "result": 98}, {"measurement": "Plant response rating, Crabgrass, Large", "setting": "[7]; [15]", "result": 85}, {"measurement": "Plant response rating, Crabgrass, Large", "setting": "[7]; [16]", "result": 98}, {"measurement": "Crabgrass, Large plant response rating", "setting": "[7]; [17]", "result": 100}, {"measurement": "Plant response rating, Kochia", "setting": "kochia (Kochia scoparia); 62 g ai/ha, 13 to 15 days", "result": 80}, {"measurement": "Plant response rating, Kochia", "setting": "kochia (Kochia scoparia); 125 g ai/ha, visual rating after 13 to 15 days", "result": 95}, {"measurement": "Kochia plant response rating", "setting": "kochia (Kochia scoparia); 250 g ai/ha, scale 0 to 100", "result": 98}, {"measurement": "Plant response rating, Cupgrass, Woolly", "setting": "[8]; [12]", "result": 85}, {"measurement": "Plant response rating, Cupgrass, Woolly", "setting": "[8]; [18]", "result": 65}, {"measurement": "Plant response rating, Cupgrass, Woolly", "setting": "[8]; [13]", "result": 65}, {"measurement": "Plant response rating, Cupgrass, Woolly", "setting": "[8]; [14]", "result": 70}, {"measurement": "Cupgrass, Woolly plant response rating", "setting": "[8]; [19]", "result": 90}, {"measurement": "Plant response rating, Cupgrass, Woolly", "setting": "[8]; [15]", "result": 10}, {"measurement": "Plant response rating, Cupgrass, Woolly", "setting": "[8]; [16]", "result": 50}, {"measurement": "Cupgrass, Woolly plant response rating", "setting": "[8]; [17]", "result": 60}, {"measurement": "Plant response rating, Blackgrass", "setting": "[9]; [12]", "result": 30}, {"measurement": "Plant response rating, Blackgrass", "setting": "[9]; [18]", "result": 10}, {"measurement": "Plant response rating, Blackgrass", "setting": "[9]; [13]", "result": 15}, {"measurement": "Plant response rating, Blackgrass", "setting": "[9]; [14]", "result": 30}, {"measurement": "Blackgrass plant response rating", "setting": "[9]; [19]", "result": 30}, {"measurement": "Plant response rating, Blackgrass", "setting": "[9]; [15]", "result": 0}, {"measurement": "Plant response rating, Blackgrass", "setting": "[9]; [16]", "result": 0}, {"measurement": "Blackgrass plant response rating", "setting": "[9]; [17]", "result": 10}, {"measurement": "Plant response rating, Cocklebur", "setting": "[10]; [12]", "result": 90}, {"measurement": "Plant response rating, Cocklebur", "setting": "[10]; [18]", "result": 85}, {"measurement": "Plant response rating, Cocklebur", "setting": "[10]; [13]", "result": 90}, {"measurement": "Plant response rating, Cocklebur", "setting": "[10]; [14]", "result": 95}, {"measurement": "Cocklebur plant response rating", "setting": "[10]; [19]", "result": 95}, {"measurement": "Plant response rating, Cocklebur", "setting": "[10]; [15]", "result": 25}, {"measurement": "Plant response rating, Cocklebur", "setting": "[10]; [16]", "result": 80}, {"measurement": "Cocklebur plant response rating", "setting": "[10]; [17]", "result": 85}, {"measurement": "Plant response rating, Bromegrass, Downy", "setting": "[11]; [12]", "result": 30}, {"measurement": "Plant response rating, Bromegrass, Downy", "setting": "[11]; [18]", "result": 5}, {"measurement": "Plant response rating, Bromegrass, Downy", "setting": "[11]; [13]", "result": 5}, {"measurement": "Plant response rating, Bromegrass, Downy", "setting": "[11]; [14]", "result": 10}, {"measurement": "Bromegrass, Downy plant response rating", "setting": "[11]; [19]", "result": 20}, {"measurement": "Plant response rating, Bromegrass, Downy", "setting": "[11]; [15]", "result": 0}, {"measurement": "Plant response rating, Bromegrass, Downy", "setting": "[11]; [16]", "result": 0}, {"measurement": "Bromegrass, Downy plant response rating", "setting": "[11]; [17]", "result": 5}]}]}
